Results taken from patent US7276339B2 (H. Lundbeck A/S, priority 1998, dated 2007).
Read-outs that look alike come from different tables or passages of the source. Non-standard residues stand in square brackets, D forms with d. Residues, ends and D or L forms follow the SMILES beside them. No end group written: not given here. NMeF = CN[C@@H](Cc1ccccc1)C(=O)O

Experiments:
[1] = cited from earlier work
rat NPFF2 receptor [2] = target: T1, rat NPFF2 receptor (Rattus norvegicus, UniProt Q9EQD2); experiment: Functional activity at cloned rat NPFF2 in COS-7 cells; type: cell-based
T1 construct: The full-length rat NPFF2 clone was amplified from rat spinal cord cDNA; expressed in transfected cells; host or cells: COS-7

human NPY Y1 receptor = target: T2, human NPY Y1 receptor (Homo sapiens, UniProt P25929); conditions: cited from earlier work
T2 sequence (P25929 1-384): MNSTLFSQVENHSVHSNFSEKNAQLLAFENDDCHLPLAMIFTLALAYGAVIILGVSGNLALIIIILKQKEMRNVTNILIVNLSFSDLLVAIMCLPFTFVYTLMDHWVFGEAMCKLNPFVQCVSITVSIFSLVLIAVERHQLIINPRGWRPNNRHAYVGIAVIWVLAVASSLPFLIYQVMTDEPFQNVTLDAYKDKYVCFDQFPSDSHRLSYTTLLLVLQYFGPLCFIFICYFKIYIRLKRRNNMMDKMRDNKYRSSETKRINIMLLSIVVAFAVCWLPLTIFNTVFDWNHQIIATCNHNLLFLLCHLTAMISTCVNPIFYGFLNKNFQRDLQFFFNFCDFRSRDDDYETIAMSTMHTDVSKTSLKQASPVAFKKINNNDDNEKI

rat NPFF1 receptor [3] = target: T3, rat NPFF1 receptor (Rattus norvegicus, UniProt Q9EP86); experiment: Functional activity at cloned rat NPFF1 in COS-7 cells; type: cell-based; set-up: expressed in transfected cells; host or cells: COS-7 (transient)
human NPFF1 receptor = target: T4, human NPFF1 receptor (Homo sapiens, UniProt Q9GZQ6); experiment: [125I]D-Tyr-NPFF radioligand binding, HEK-293 cells expressing human NPFF1; conditions: Table 3, read-out: pKi ± SEM, human NPFF1 (converted)
T4 construct: To obtain a full-length hNPFF1 construct in the correct orientation; expressed in transfected cells; host or cells: HEK-293 (transient)
Method: (§1) Transfected cells from culture flasks are scraped into 5 ml of 20 mM Tris-HCl, 5 mM EDTA, pH 7.5, and lysed by sonication. The cell lysates are centrifuged at 1000 rpm for 5 min. at 4° C., and the supernatant is centrifuged at 30,000×g for 20 min. at 4° C. The pellet is suspended in binding buffer (50 mM Tris-HCl, 60 mM NaCl, 1 mM MgCl, 33 μM EDTA, 33 μM EGTA at pH 7.4 supplemented with 0.2% BSA, 2 μg/ml aprotinin, and 20 μM bestatin). Optimal membrane suspension dilutions, defined as the protein concentration required to bind less than 10% of the added radioligand, are added to 96-well polpropylene microtiter plates containing ^3H-labeled compound, unlabeled compounds, and binding buffer to a final volume of 250 μl. In equilibrium saturation binding assays membrane preparations are incubated in the presence of increasing concentrations of [^3H]-labeled compound. The binding affinities of the different compounds are determined in equilibrium competition binding assays, using [^125I]-labeled compound in the presence of ten to twelve different concentrations of the displacing ligands. Competition assay: 50 pM radioligand, 10-12 points. Binding reaction mixtures are incubated for 2 hr at 25° C., and the reaction stopped by filtration through a double layer of GF filters treated with 0.1% polyethyleneimine, using a cell harvester. Wash buffer: 50 mM Tris-HCl, 0.1% BSA. Radioactivity may be measured by scintillation counting and data are analyzed by a computerized non-linear regression program. Non-specific binding is defined as the amount of radioactivity remaining after incubation of membrane protein in the presence of 1 μM final concentration […]. Protein concentration may be measured by the Bradford method using Bio-Rad Reagent, with bovine serum albumin as a standard.
(§2) Additional pharmacological evaluation was done using 293 human embryonic kidney cells (HEK-293 cells) transiently expressing the genes encoding the human NPFF1, NPFF2, and rat NPFF1 receptors, as well as Cos-7 cells expressing the rat NPFF2 receptors.

human NPFF2 receptor = target: T5, human NPFF2 receptor (Homo sapiens, UniProt Q9Y5X5); experiment: [125I]D-Tyr-NPFF radioligand binding, HEK-293 cells expressing human NPFF2; conditions: Table 3; HEK-293 cells; [125I]D-Tyr-NPFF; read-out: pKi ± SEM, human NPFF2 (converted)
T5 construct: BO89, was determined to be a full length clone with no point mutations; expressed in transfected cells; host or cells: HEK-293 (transient)
Method: as §1, §2

rat NPFF2 receptor [4] = target: T1, rat NPFF2 receptor; experiment: [125I]D-Tyr-NPFF radioligand binding, cloned rat NPFF2; conditions: Table 3; title HEK-293 cells (text: Cos-7); [125I]D-Tyr-NPFF; read-out: pKi ± SEM, rat NPFF2 (converted)
Method: as §1, §2

rat NPFF1 receptor [5] = target: T3, rat NPFF1 receptor; experiment: [125I]D-Tyr-NPFF radioligand binding, HEK-293 cells expressing rat NPFF1; set-up: expressed in transfected cells; conditions: Table 3, read-out: pKi ± SEM, rat NPFF1 (converted)
Method: as §1, §2

NPFF-1 receptor = target: T6, NPFF-1 receptor (Rattus norvegicus, UniProt Q9EP86); experiment: Total inositol phosphate release, Cos-7 cells transiently transfected with NPFF1; type: cell-based
T6 construct: expressed in transfected cells; host or cells: COS-7 (transient), alone or co-transfected with Gq/Gz chimera

NPFF1 (SNORF2) = target: T7, NPFF1 (SNORF2) (Rattus norvegicus, UniProt Q9EP86); experiment: Voltage-clamp electrophysiology, Xenopus oocytes injected with SNORF2 (NPFF1) and chimeric Gαq/z RNA; type: cell-based; conditions: oocytes with SNORF2 + Gαq/z
T7 construct: linearized plasmids or PCR products containing the complete coding region of the genes; expressed in transfected cells; host or cells: Xenopus laevis oocytes injected with synthetic RNA (T7 transcripts)
Method: Oocytes were harvested from Xenopus laevis and injected with mRNA transcripts as previously described (Quick and Lester, 1994; Smith et al., 1997). […] Three to eight hours prior to recording, oocytes were injected with 500 pg Gαq/z mRNA in order to observe coupling to Ca^++ activated Cl^− currents. Dual electrode voltage clamp (Axon Instruments Inc.) was performed using 3 M KCl-filled glass microelectrodes having resistances of 1-2 Mohm. Unless otherwise specified, oocytes were voltage clamped at a holding potential of −80 mV. During recordings, oocytes were bathed in continuously flowing (1-3 ml/min) medium containing 96 mM NaCl, 2 mM KCl, 1.8 mM CaCl2, 1 mM MgCl2, and 5 mM HEPES, pH 7.5 (ND96). Drugs were applied either by local perfusion from a […] glass capillary tube fixed at a distance of 0.5 mm from the oocyte, or by switching from a series of gravity fed perfusion lines.
Heterologous expression of GPCRs in Xenopus oocytes has been widely used to determine the identity of signaling pathways activated by agonist stimulation (Gundersen et al., 1983; Takahashi et al., 1987). Activation of the phospholipase C (PLC) pathway is assayed by applying test compound in ND96 solution to oocytes previously injected with mRNA for the mammalian receptor and observing inward currents at a holding potential of −80 mV. The appearance of currents that reverse at −25 mV and display other properties of the Ca^++-activated Cl^− (chloride) channel is indicative of mammalian receptor-activation of PLC and release of IP3 and intracellular Ca^++.

normotensive rats = experiment: Blood pressure in anesthetized normotensive rats, intravenous administration; type: in vivo, rat; conditions: i.v.; NPFF 1.0 mg/kg, fPP 0.1 mg/kg
Source text: Rats were anesthetized with urethane and PE50 cannulae were placed in the femoral artery and vein for blood pressure monitoring and drug administration, respectively.

anesthetized rats = experiment: Distension-induced rhythmic contraction (DIRC) model of the micturition reflex in anesthetized rats; type: in vivo, rat; conditions: i.v.
Method: The effects of compounds on the micturition reflex were assessed in the “distension-induced rhythmic contraction” (DIRC) model in rats. This model of the micturition reflex has been described in previous publications (e.g. 72, 73).
Female Sprague Dawley rats weighing approximately 300 g were anesthetized with subcutaneous urethane (1.2 g/kg). The trachea was cannulated with PE240 tubing to provide a clear airway throughout the experiment. A midline abdominal incision was made and the left and right ureters were isolated. The ureters were ligated distally (to prevent escape of fluids from the bladder) and cannulated proximally with PE10 tubing. The incision was closed using 4-0 silk sutures, leaving the PE10 lines routed to the exterior for the elimination of urine. The bladder was canulated via the transurethral route using PE50 tubing inserted 2.5 cm beyond the urethral opening. This cannula was secured to the tail using tape and connected to a pressure transducer. To prevent leakage from the bladder, the cannula was tied tightly to the exterior urethral opening using 4-0 silk.
To initiate the micturition reflex, the bladder was first emptied by applying pressure to the lower abdomen, and then filled with normal saline in 100 μl increments (maximum=2 ml) until spontaneous bladder contractions occurred (typically 20-40 mmHg at a rate of one contraction every 2 to 3 minutes. Once a regular rhythm was established, vehicle (saline) or test compounds were administered intravenously to examine their effects on bladder activity. The effect of a compound which inhibited the micturition reflex was expressed as its “disappearance time”, defined as the time between successive bladder contractions in the presence of the test compound minus the time between contractions before compound administration.

T3 sequence (Q9EP86 whole entry): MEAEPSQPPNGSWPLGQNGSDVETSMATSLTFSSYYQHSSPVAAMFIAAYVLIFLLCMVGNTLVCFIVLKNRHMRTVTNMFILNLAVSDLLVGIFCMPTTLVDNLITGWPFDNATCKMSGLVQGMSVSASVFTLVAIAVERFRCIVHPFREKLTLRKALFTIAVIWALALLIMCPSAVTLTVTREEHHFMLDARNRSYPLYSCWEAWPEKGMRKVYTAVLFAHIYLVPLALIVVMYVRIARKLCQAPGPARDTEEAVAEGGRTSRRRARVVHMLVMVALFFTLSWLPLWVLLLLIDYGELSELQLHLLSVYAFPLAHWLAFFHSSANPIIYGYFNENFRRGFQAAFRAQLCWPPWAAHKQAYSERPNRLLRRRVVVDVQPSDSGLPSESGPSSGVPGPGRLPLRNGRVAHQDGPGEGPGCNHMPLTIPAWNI
T1 sequence (Q9EQD2 whole entry): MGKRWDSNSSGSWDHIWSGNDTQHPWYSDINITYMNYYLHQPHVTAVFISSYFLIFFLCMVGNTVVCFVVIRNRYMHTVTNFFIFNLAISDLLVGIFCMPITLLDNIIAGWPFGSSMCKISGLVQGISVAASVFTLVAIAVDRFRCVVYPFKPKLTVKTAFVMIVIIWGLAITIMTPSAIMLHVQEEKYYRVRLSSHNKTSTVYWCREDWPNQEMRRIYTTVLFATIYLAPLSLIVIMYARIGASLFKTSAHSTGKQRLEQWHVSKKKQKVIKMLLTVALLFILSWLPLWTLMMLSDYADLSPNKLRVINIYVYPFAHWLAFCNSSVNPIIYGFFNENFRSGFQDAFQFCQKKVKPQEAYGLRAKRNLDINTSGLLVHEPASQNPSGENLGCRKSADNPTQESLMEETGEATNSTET
T7 sequence (Q9EP86 whole entry): as the sequence (Q9EP86 whole entry) above
T6 sequence (Q9EP86 whole entry): as above
T4 sequence (Q9GZQ6 whole entry): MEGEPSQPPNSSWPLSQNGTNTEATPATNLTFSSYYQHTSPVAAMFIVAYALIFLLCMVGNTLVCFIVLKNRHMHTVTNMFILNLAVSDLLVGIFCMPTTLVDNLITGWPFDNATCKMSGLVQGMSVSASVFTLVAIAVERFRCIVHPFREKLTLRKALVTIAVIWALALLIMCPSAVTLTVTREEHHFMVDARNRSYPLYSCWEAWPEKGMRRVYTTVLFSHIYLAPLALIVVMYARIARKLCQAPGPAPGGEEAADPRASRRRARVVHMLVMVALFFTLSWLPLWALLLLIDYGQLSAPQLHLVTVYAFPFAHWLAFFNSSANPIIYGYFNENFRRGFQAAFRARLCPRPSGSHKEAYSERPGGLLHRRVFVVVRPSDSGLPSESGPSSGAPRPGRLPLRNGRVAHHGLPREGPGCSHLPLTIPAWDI
T5 sequence (Q9Y5X5 103-522): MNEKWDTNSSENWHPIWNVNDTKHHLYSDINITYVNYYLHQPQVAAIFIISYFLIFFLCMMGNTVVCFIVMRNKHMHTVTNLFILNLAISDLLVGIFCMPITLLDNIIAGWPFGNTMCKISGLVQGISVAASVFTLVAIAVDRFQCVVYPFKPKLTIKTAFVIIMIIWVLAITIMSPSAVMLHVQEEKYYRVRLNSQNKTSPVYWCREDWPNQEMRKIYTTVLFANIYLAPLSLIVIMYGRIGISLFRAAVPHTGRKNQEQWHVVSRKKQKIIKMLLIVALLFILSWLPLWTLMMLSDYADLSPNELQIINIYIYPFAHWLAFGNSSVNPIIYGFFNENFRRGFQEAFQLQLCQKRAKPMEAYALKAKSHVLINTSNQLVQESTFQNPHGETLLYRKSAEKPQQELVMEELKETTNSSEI

YLFQPQRF-NH2 [Y8Fa]
degradation on incubation with rat spinal cord membranes ([1]; after 30 minutes): fully degraded

NC(N)=NCCC[C@H](NC(=O)C(c1ccccc1)c1ccccc1)C(=O)NCc1ccc(O)cc1 [BIBP3435]
EC50 (rat NPFF2 receptor [2]): 5420 nM
Maximum Effect (% NPFF), rat NPFF2 (rat NPFF2 receptor [2]): 71 % NPFF
binding affinity, human NPY Y1 receptor (human NPY Y1 receptor): > 10,000 nM
Maximum Effect (% NPFF), rat NPFF1 (rat NPFF1 receptor [3]; COS-7 cells): 0 % NPFF
EC50 (rat NPFF1 receptor [3]; COS-7 cells, read-out: EC50, rat NPFF1): > 10000 nM

CC(C)C[C@H](NC(=O)[C@H](N)Cc1ccc(O)cc1)C(=O)N(C)[C@@H](Cc1ccccc1)C(=O)N[C@@H](CCC(N)=O)C(=O)N1CCC[C@H]1C(=O)N[C@@H](CCC(N)=O)C(=O)N[C@@H](CCCN=C(N)N)C(=O)N[C@@H](Cc1ccccc1)C(N)=O [(D-Tyr^1-(NMe)Phe^3)NPFF] (H-[dY]L[NMeF]QPQRF-NH2)
Ki (human NPFF1 receptor): 7.94 nM
Ki (human NPFF2 receptor): 3.16 nM
Ki (rat NPFF2 receptor [4]): 2 nM
stable after incubation with rat spinal cord membranes ([1]; 150 min. incubation): 90%
Ki (rat NPFF1 receptor [5]): 1.58 nM

CC(C)C[C@H](NC(=O)[C@@H](N)Cc1ccccc1)C(=O)N[C@@H](Cc1ccccc1)C(=O)N[C@@H](CCC(N)=O)C(=O)N1CCC[C@H]1C(=O)N[C@@H](CCC(N)=O)C(=O)N[C@@H](CCCNC(=N)N)C(=O)N[C@@H](Cc1ccccc1)C(N)=O [NPFF]
Maximum Effect (% NPFF), rat NPFF2 (rat NPFF2 receptor [2]): 100 % NPFF
Emax, total IP release (NPFF-1 receptor; NPFF1 + Gq/Gz chimera): approximately 1500 % basal
Emax, total IP release (NPFF-1 receptor; NPFF1 alone): approximately 200 % basal
inward current response (NPFF1 (SNORF2); 1 μM, holding potential −80 mV): robust inward currents
threshold for activation of inward current (NPFF1 (SNORF2)): 30 nM
effect on mean arterial blood pressure (MAP) (normotensive rats): transient increase
disappearance time of bladder contractions (anesthetized rats; 0.3 to 3.0 mg/kg): dose-dependently increased
effect on distension-induced rhythmic contractions of the bladder (anesthetized rats; fPP 0.1 mg/kg): inhibited
EC50 (rat NPFF1 receptor [3]): 9.3 nM
Maximum Effect (% NPFF), rat NPFF1 (rat NPFF1 receptor [3]; COS-7 cells): 100 % NPFF
